Results published in US4880791A, “Combination product composed of xanthine derivatives and O-acetylsalicylic acid or its pharmacologically tolerated salts, and its use” (priority 1984, dated 1989).

Columns and labels:
[1] = system: laser-induced thrombosis in the arterioles and venules of the rat mesentery; test: laser-induced thrombosis in arterioles of the rat mesentery; type: in vivo, rat (female Sprague-Dawley); conditions: for percentage improvement compared with the placebo controls: 10 mg/kg xanthine derivative and, 1 hour later, 1 mg/kg acetylsalicylic acid orally; for percentage improvement compared with the placebo controls / inhibition in vivo at 10 mg/kg: n = 3; for inhibition in vivo at 10 mg/kg: Rattus norvegicus, po, 10 mg/kg xanthine derivative orally, read-out: percentage improvement compared with the placebo controls; for Changes from controls, % / Changes from controls, absolute / Number of shots: single substance
Description: The evaluation was carried out by analysis by vital microscopy (Nature, 218 (1968) 887 and Haemostasis 13 (1983) 61 and IRCS Med. Sci. 12 (1984) 91).
The test substances were administered in 0.9% sodium chloride solution (which contained 1% carboxymethylcellulose (Serva, Heidelberg)) either orally, intraperitoneally or intravenously. Control animals were treated in the corresponding manner but without the test substances. The experimental animals used were male or female Sprague-Dawley or Wistar rats.
The animals which were to be investigated underwent s.c. premedication with 0.1 mg of atropine sulfate in solution and were anesthetized with 100 mg of ketamine hydrochloride and 4 mg of xylazine per kg of body weight i.p. The investigation made use of arterioles and venules of the mesentery, which was coated with degassed liquid paraffin, having a diameter of about 13 μm. The beam of a 4 W argon laser (supplied by Spectra Physics, Darmstadt) was introduced coaxially, by means of a beam adaptation and adjustment system (supplied by BTG, Munich), into the inverted optical path of a microscope (ICM 405, LD-Epipland 40/0.60; supplied by Zeiss, Oberkochen). The wavelength used was 514.5 nm, with an energy above the objective of 30.5 mW. The exposure time per single shot was 1/15 sec. All the measuring operations were recorded by video camera (Trinicon tube, Sony, Cologne) and stored in a recorder (Sony, U-matic 3/4"). The test substances were administered in various doses to the experimental animals, orally one hour, and on i.v. administration 10 min., before the start of the experiment, control animals receiving the same amount of placebo.
The number of shots needed to induce a defined thrombus is counted.
The results of the experiment were subjected to statistical analysis using the .chi.^2 test (L. Cavalli-Sforza, Biometrie (Biostatistics), Stuttgart, 1969, pages 49 et seq.). […]

[2] = system: platelet aggregation; test: ex vivo platelet aggregation (arachidonic acid, Born aggregometer); type: in vivo, rabbit
[3] = system: rat aortas; conditions: rat aortas ex vivo, treatment of the animals; cited from earlier work
[4] = system: adjuvant arthritis (Mycobacterium butyricum) in the rat; test: antiinflammatory effect in adjuvant arthritis (paw edema, necrosis index); type: in vivo; conditions: 30 mg
Description: (§1) The hemorheological, antithrombotic, antiaggregatory and antiinflammatory effects of the combinations according to the invention were investigated after oral administration for 21 days in the pathological model of adjuvant arthritis (induced with Mycobacterium butyricum) is the rat by the method of Clincal Hemorheology 3 (1983) 469-480, and were compared with those of the appropriate individual substances. Blood was taken from the thoracic aorta 1 hour after the last administration of substance. All the details of the determination of the hemorheological effect were as described in Clinical Hemorheology 4 (1984) 263-273. The erythocyte deformability was quantitatively determined in a filtrometer (Myrenne MF 4, Roetgen, Germany) by evaluation of the initial gradient of the flow curve.
The antiflammatory effect was quantitatively measured, as quoted above, using the volume of the edema of the paw and using the standard necrosis index.

[5] = system: erythrocytes; conditions: treatment with pentoxifylline; cited from earlier work
[6] = system: erythrocyte filterability; test: erythrocyte filterability in adjuvant arthritis rats; type: in vivo, rat; conditions: oral 21 days
Description: as §1

[7] = system: induced platelet aggregation; test: collagen-induced platelet aggregation in arthritic rats; type: in vivo, rat; conditions: 30 mg, oral 21 days
Description: as §1
The measurements of platelet aggregation were carried out as described above in detail. However, instead of arachidonic acid 0.04 mg of collagen was used to induce platelet aggregation in 1 ml of platelet-rich plasma (PA II aggregometer from Myrenne, Roetgen).

[8] = system: platelets; conditions: only at concentrations above those used in medicinal treatment; cited from earlier work
[9] = system: tendency to thrombosis in arthritic rat; test: laser-induced tendency to thrombosis in arthritic rats; type: in vivo; conditions: 30 mg, oral 21 days
Description: as §1
The antithrombotic effect was measured using the laser model as described above.

## CC(O)CCCCn1c(=O)c2c(ncn2C)n(C)c1=O (stereo not drawn) [1-(5-Hydroxyhexyl)-3,7-dimethyl-xanthine, 1-(5-hydroxyhexyl)-3,7-dimethylxanthine]
[1]
  percentage improvement compared with the placebo controls: 68%
  inhibition in vivo at 10 mg/kg: 52%

## CC(=O)CCCCn1cnc2c1c(=O)n(CC(C)C)c(=O)n2C [1-(2-Methylpropyl)-3-methyl-7-(5-oxohexyl-)-xanthine]
[1]
  percentage improvement compared with the placebo controls: 39%
  inhibition in vivo at 10 mg/kg: 28%

## CC(=O)CCCCn1c(=O)c2c(ncn2CC(C)C)n(C)c1=O [1-(5-Oxohexyl)-3-methyl-7-(2-methyl-propyl-)-xanthine]
[1]
  percentage improvement compared with the placebo controls: 39%
  inhibition in vivo at 10 mg/kg: 28%

## CC(=O)Oc1ccccc1C(=O)O [DL-Lysine monoacetylsalicylate, D,L-lysine monoacetylsalicylate]
[2]; I, at 30 min, 1,5 mg/kg i.v. at 15 min
  Aggregation amplitude E ex vivo: 23,5
[2]; I, at 45 min, 1,5 mg/kg i.v. at 15 min and 0,5 mg/kg at 35 min
  Aggregation amplitude E ex vivo: 19,5

## CC(=O)CCCCn1c(=O)c2c(ncn2C)n(C)c1=O [Pentoxifylline, 1-(5-oxohexyl)-3,7-dimethylxanthine]
[2]; III, at 45 min, 10 mg/kg i.v. at 15 min
  Aggregation amplitude E ex vivo: 22
[2]; III, at 120 min, 10 mg/kg i.v. at 15 min and 10 mg/kg at 60 min
  Aggregation amplitude E ex vivo: 20
[3]
  release of a substance having antiaggregatory activity: can be increased
[4]
  Percentage improvement, volume of paw edema, left paw: 3%
  Percentage improvement, volume of paw edema, right paw: 0%
[5]
  deformability of the erythrocytes: improved
[6]; 30 mg
  erythrocyte filterability: 79%
[6]
  erythrocyte filterability in arthritic rats (in words): can be increased again
[7]
  induced platelet aggregation: 94%
[8]
  in vitro aggregation of platelets: can be inhibited
[9]
  tendency to thrombosis (number of shots): 87%
[1]; 5 mg/kg oral
  Changes from controls, %: 21%
  Changes from controls, absolute: 0,46
  Number of shots: 2,63
[1]; 10 mg/kg oral
  Changes from controls, %: 54%
  Changes from controls, absolute: 1,16
  Number of shots: 3,33
[1]; 30 mg/kg oral
  Changes from controls, %: 83%
  Changes from controls, absolute: 1,8
  Number of shots: 3,97
[1]; Table 1b, 10 mg/kg pentoxifylline orally without acetylsalicylic acid
  -x (number of shots): 3,27
[1]; Table 1b, 10 mg/kg pentoxifylline orally without acetylsalicylic acid, p < 0,05
  % change from controls: +49%
[1]; oral dose 10 mg/kg
  effect in laser-induced thrombosis: significant effect
[1]; single oral dose 5 mg/kg
  effect in laser-induced thrombosis: not significant
  inhibition of thrombus formation: 20%

## CCCn1c(=O)c2c(ncn2CCCCC(C)O)n(C)c1=O (stereo not drawn) [1-Propyl-3-methyl-7-(5-hydroxyhexyl-)-xanthine]
[1]
  percentage improvement compared with the placebo controls: 42%
  inhibition in vivo at 10 mg/kg: 35%

## CC(C)CCn1c(=O)c2c(ncn2CCCCC(C)O)n(C)c1=O (stereo not drawn) [1-(3-Methylbutyl)-3-methyl-7-(5-hydroxyhexyl-)-xanthine]
[1]
  percentage improvement compared with the placebo controls: 37%
  inhibition in vivo at 10 mg/kg: 28%

## CCCn1cnc2c1c(=O)n(CCCCC(C)O)c(=O)n2C (stereo not drawn) [1-(5-Hydroxyhexyl)-3-methyl-7-propylxanthine]
[1]
  percentage improvement compared with the placebo controls: 53%
  inhibition in vivo at 10 mg/kg: 40%

## CC(O)CCCCn1cnc2c1c(=O)n(C(C)C)c(=O)n2C (stereo not drawn) [1-(Isopropyl)-3-methyl-7-(5-hydroxy-hexyl-)-xanthine]
[1]
  percentage improvement compared with the placebo controls: 36%
  inhibition in vivo at 10 mg/kg: 31%

## CC(=O)CCCCn1cnc2c1c(=O)n(CCC(C)C)c(=O)n2C [1-(3-Methylbutyl-3-methyl-7-(5-oxo-hexyl)-xanthine]
[1]
  percentage improvement compared with the placebo controls: 35%
  inhibition in vivo at 10 mg/kg: 26%

## CC(C)Cn1cnc2c1c(=O)n(CCCCC(C)O)c(=O)n2C (stereo not drawn) [1-(5-Hydroxyhexyl)-3-methyl-7-(2-methyl-propyl)-xanthine]
[1]
  percentage improvement compared with the placebo controls: 34%
  inhibition in vivo at 10 mg/kg: 23%

## CCCn1cnc2c1c(=O)n(CCC(C)=O)c(=O)n2C [1-(3-Oxobutyl)-3-methyl-7-propyl-xanthine]
[1]
  percentage improvement compared with the placebo controls: 49%
  inhibition in vivo at 10 mg/kg: 40%

## CCCCCCn1c(=O)c2c(ncn2C)n(C)c1=O [1-Hexyl-3,7-dimethylxanthine]
[1]
  percentage improvement compared with the placebo controls: 46%
  inhibition in vivo at 10 mg/kg: 39%

## CCn1c(=O)c2c(ncn2CCCCC(C)=O)n(CC)c1=O [1-Ethyl-3-ethyl-7-(5-oxohexyl-)-xanthine]
[1]
  percentage improvement compared with the placebo controls: 48%
  inhibition in vivo at 10 mg/kg: 41%

## CCCCn1c(=O)c2c(ncn2CC(C)=O)n(CCCC)c1=O [1-n-Butyl-3-n-butyl-7-(2-oxopropyl-)-xanthine]
[1]
  percentage improvement compared with the placebo controls: 50%
  inhibition in vivo at 10 mg/kg: 33%

## CCCn1cnc2c1c(=O)n(CCCCC(C)=O)c(=O)n2C [1-(5-Oxohexyl)-3-methyl-7-propylxanthine]
[1]
  percentage improvement compared with the placebo controls: 56%
  inhibition in vivo at 10 mg/kg: 42%

## CC(C)Cn1c(=O)c2c(ncn2CCCCC(C)O)n(C)c1=O (stereo not drawn) [1-(2-Methylpropyl)-3-methyl-7-(5-hydroxyhexyl)-xanthine]
[1]
  percentage improvement compared with the placebo controls: 39%
  inhibition in vivo at 10 mg/kg: 29%
